From ChEMBL document CHEMBL1128900, “Non-peptidic inhibitors of neutral endopeptidase 24.11 1. Discovery and optimization of potency” (Bioorg Med Chem Lett, 1995)

Biological target: T1, Neprilysin (Rattus norvegicus, UniProt P07861)
T1 sequence (P07861 whole entry): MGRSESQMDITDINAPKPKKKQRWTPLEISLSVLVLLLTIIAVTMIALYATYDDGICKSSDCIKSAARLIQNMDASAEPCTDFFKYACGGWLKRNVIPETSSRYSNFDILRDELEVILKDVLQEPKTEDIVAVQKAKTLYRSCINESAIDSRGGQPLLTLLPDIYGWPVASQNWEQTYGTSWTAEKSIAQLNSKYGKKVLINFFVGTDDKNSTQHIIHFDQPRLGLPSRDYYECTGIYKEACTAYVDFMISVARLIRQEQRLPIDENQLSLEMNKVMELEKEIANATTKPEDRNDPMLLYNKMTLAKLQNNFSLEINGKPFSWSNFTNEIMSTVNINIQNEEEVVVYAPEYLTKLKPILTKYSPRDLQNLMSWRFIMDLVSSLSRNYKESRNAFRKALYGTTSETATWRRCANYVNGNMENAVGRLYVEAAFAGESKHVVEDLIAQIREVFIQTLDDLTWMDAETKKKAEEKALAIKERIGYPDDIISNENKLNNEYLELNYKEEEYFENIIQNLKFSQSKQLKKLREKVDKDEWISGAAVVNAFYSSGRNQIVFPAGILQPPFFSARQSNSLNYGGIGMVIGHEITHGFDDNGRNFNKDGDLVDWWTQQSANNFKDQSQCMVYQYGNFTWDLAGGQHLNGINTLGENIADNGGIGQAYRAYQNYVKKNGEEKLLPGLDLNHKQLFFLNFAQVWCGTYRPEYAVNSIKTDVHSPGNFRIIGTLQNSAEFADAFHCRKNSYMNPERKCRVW
Test: In vitro inhibitory activity against neutral endopeptidase (NEP)

Structure (SMILES) | IC50 [nM]
O=C(O)C[C@H](Cc1ccc(-c2ccccc2)cc1)NCP(=O)(O)O | 15
O=C(NCc1ccccc1)[C@H](Cc1ccc(-c2ccccc2)cc1)NCP(=O)(O)O | 308
NC(=O)[C@H](Cc1ccc(-c2ccccc2)cc1)NCP(=O)(O)O | 1300
O=C(O)[C@H](Cc1ccc(-c2ccccc2)cc1)NCCP(=O)(O)O | > 10000
COc1cc(C[C@H](NCP(=O)(O)O)c2nnn[nH]2)ccc1-c1ccccc1 | 1.5
CC(C)Oc1ccc(C[C@H](NCP(=O)(O)O)c2nnn[nH]2)cc1 | 15
O=C(O)CC[C@H](Cc1ccc(-c2ccccc2)cc1)NCP(=O)(O)O | 643
COc1cc(C[C@H](NCP(=O)(O)O)C(=O)O)ccc1-c1ccccc1 | 14
O=P(O)(O)CN[C@@H](Cc1ccc(-c2ccccc2)cc1)c1nnnn1Cc1ccccc1 | > 1000
O=P(O)(O)CN[C@@H](CCc1ccccc1)c1nnn[nH]1 | > 10000
O=C(O)CCNC(=O)[C@H](Cc1ccc(-c2ccccc2)cc1)NCP(=O)(O)O | 1900
O=P(O)(O)CN[C@@H](Cc1ccccc1)c1nnn[nH]1 | 26
O=C(O)C(Cc1cccc(-c2ccccc2)c1)NCP(=O)(O)O (configuration not stated) | > 1000
Cc1ccc(-c2ccc(C[C@H](NCP(=O)(O)O)C(=O)O)cc2)cc1 | 236
O=P(O)(O)CN[C@@H](Cc1ccc2ccccc2c1)c1nnn[nH]1 | 364
O=C(Nc1nn[nH]n1)[C@H](Cc1ccc(-c2ccccc2)cc1)NCP(=O)(O)O | 1.4
O=P(O)(O)CNC(c1nnn[nH]1)C(c1ccccc1)c1ccccc1 (configuration not stated) | > 1000
O=C(O)/C=C/[C@H](Cc1ccc(-c2ccccc2)cc1)NCP(=O)(O)O | 32
O=C(O)[C@H](Cc1ccccc1)NCP(=O)(O)O | > 1000
CN(CP(=O)(O)O)[C@@H](Cc1ccc(-c2ccccc2)cc1)c1nnn[nH]1 | 530
O=C(O)[C@H](Cc1ccc(-c2cccnc2)cc1)NCP(=O)(O)O | > 1000
O=C(O)C(Cc1ccccc1-c1ccccc1)NCP(=O)(O)O (configuration not stated) | > 1000
